Values joined by “and” are separate entries in the source; they are usually repeats but may differ in a detail not shown here. Equal entries are not always repeated. Where two headings read alike, the source gives them in different places.
How the values were obtained:
[1] = Rat PK study #1 (Compound A PO, methylcellulose vs propylene glycol formulation); format: in vivo, Lewis rats; settings: male, rat, plasma, Lewis rats, PO 10 mg/kg; for AUC(0-t) / Tmax / Cmax / concentration at 0.083 h / concentration at 0.25 h / concentration at 0.5 h / concentration at 1 h / concentration at 2 h / concentration at 4 h / concentration at 8 h / concentration at 24 h: Lewis, po, 10 mg/kg; for Cmax: read-out: Cmax
Protocol: For the first rat pharmacokinetic study, the pharmacokinetics of Compound A were assessed in male Lewis rats. Compound A was prepared in two different formulations (1% methylcellulose and 20% propylene glycol/20% Vitamin E/60% water) according to Table 3A (see Tables 2A and 2D for formulations). The formulations were made fresh prior to use. Animals were divided into two groups based on the compound formulation (n=3/group). The Compound A solutions were administered to animals orally (PO) and animals were then monitored over a 24 h period.
Blood samples (~0.2 mL) were collected according to a schedule (0.083, 0.25, 0.5, 1, 2, 4, 8, and 24 h following the initial dosing) via the jugular vein by cannulation and EDTA-K2 was used as anticoagulant. Within 30 minutes of collection, the samples were centrifuged at approximately 4000 times g-force for 5 minutes at 4° C. to obtain blood plasma. The plasma samples were immediately divided into two aliquots (~75 μL each), transferred to a cryogenic vial, and stored in a freezer at −75±15° C. prior to analysis.
The concentration of Compound A in plasma samples was determined by liquid chromatography-mass spectrometry (LC-MS/MS) using a Shimadzu HPLC (DGU-20A5R; LC-30AD; SIL-30AC; Rack changer II; CTO-31A; and CBM-20A) and an AB API 5500 LC/MS/MS instrument. Samples were analyzed on an Agilent Poroshell 120 EC-C18 4 μm (50×2.1 mm) column. Solution A in the mobile phase was 95% water (0.1% formic acid) and solution B was 95% acetonitrile in water (0.1% formic acid), injection volume was 3 μL, and flow rate was 0.6 mL/min.
To prepare samples for analysis, serial concentrations were prepared by diluting the stock solution of analyte with a 50% acetonitrile in water solution. 5 μL working solutions (5, 10, 20, 50, 100, 500, 1000, 5000, and 10000 ng/ml) were added to 50 μL of the blank Lewis rat plasma to achieve calibration standards of ~0.5 to 1000 ng/ml (0.5, 1, 2, 5, 10, 50, 100, 500, and 1000 ng/ml) in a total volume of 55 μL. Five quality control samples at 1 ng/ml, 2 ng/ml, 5 ng/mL, 50 ng/mL, and 800 ng/mL for plasma were prepared independently of those used for the calibration curves. These QC samples were prepared on the day of analysis in the same way as calibration standards.
55 μL of standards, 55 μL of QC samples and 55 μL of unknown samples (50 μL of unknown rat plasma with 5 μL of blank solution) were added to 200 μL of acetonitrile containing internal standard (IS; verapamil) mixture for precipitating protein respectively. The samples were then vortexed for 30 s. After centrifugation at 4° C., 3900 rpm for 15 min, the supernatant was diluted 3 times with water. 3 μL of diluted supernatant was injected into the LC/MS/MS system for quantitative analysis.

IL-17A = IL-17A release from activated human PBMCs (ELISA); format: cell-based
Protocol: Human PBMCs used to analyze inhibition of CXCL10 were collected from 8 donors, PBMCs used to analyze inhibition of IL-17A were collected from 7 donors, and PBMCs used to analyze inhibition of IL-22 were collected from 6 donors. Compounds were serially diluted in 10 mM DMSO and further diluted in assay media to 100× the required final concentration, of which 2 μL was added to the specified well. […] The cell culture supernatant was collected and levels of IL-17A and IL-22 in the supernatant were assessed by ELISA (Invitrogen).

[2] = 1% methylcellulose formulation, mean of 3 animals
[3] = propylene glycol/Vitamin E TPGS/water formulation, individual animals
[4] = propylene glycol/Vitamin E TPGS/water formulation, mean of 3 animals

Which AUC(0-t) [1, 2] does the source give for Cn1cc(-c2ccccc2)c(-c2cn(C)c(=O)c3[nH]c(-c4cnn(C(F)(F)F)c4)cc23)cc1=O [Compound A, 6-methyl-4-(1-methyl-2-oxo-5-phenyl-1,2-dihydropyridin-4-yl)-2-(1-(trifluoromethyl)-1H-pyrazol-4-yl)-1,6-dihydro-7H-pyrrolo[2,3-c]pyridin-7-one] here?
Its AUC(0-t) is 694 ng·h/mL.

And the Tmax [1, 2]?
The Tmax was 6.67 h.

And the Cmax [1, 2]?
The Cmax was 53.1 ng/mL.

What about the concentration at 0.083 h [1, 3] of the same molecule?
Its concentration at 0.083 h is 4.79 ng/mL.

What about the concentration at 0.083 h [1, 4] of the same molecule?
Its concentration at 0.083 h is 4.29 ng/mL.

What about the concentration at 0.25 h [1, 3] of the same molecule?
Its concentration at 0.25 h is 44.5 ng/mL.

And the concentration at 0.25 h [1, 4]?
The concentration at 0.25 h was 43.8 ng/mL.

And the concentration at 0.5 h [1, 3]?
Its concentration at 0.5 h is 125 ng/mL.

What about the concentration at 0.5 h [1, 4] of the same molecule?
The concentration at 0.5 h was 131 ng/mL.

And the concentration at 1 h [1, 3]?
The concentration at 1 h was 277 ng/mL.

And the concentration at 1 h [1, 4]?
Its concentration at 1 h is 268 ng/mL.

And the concentration at 2 h [1, 3]?
The concentration at 2 h was 390 ng/mL.

What about the concentration at 2 h [1, 4] of the same molecule?
The concentration at 2 h was 396 ng/mL.

What about the concentration at 4 h [1, 3] of the same molecule?
The concentration at 4 h was 445 ng/mL.

What about the concentration at 4 h [1, 4] of the same molecule?
The concentration at 4 h was 399 ng/mL.

What about the concentration at 8 h [1, 3] of the same molecule?
The concentration at 8 h was 266 ng/mL.

And the concentration at 8 h [1, 4]?
The concentration at 8 h was 189 ng/mL.

And the concentration at 24 h [1, 3]?
Its concentration at 24 h is 13.1 ng/mL.

What about the concentration at 24 h [1, 4] of the same molecule?
The concentration at 24 h was 12.7 ng/mL.

And the AUC(0-t) [1, 3]?
The AUC(0-t) was 4950 ng·h/mL.

And the Tmax [1, 3]?
The Tmax was 4 h.

And the Cmax [1, 3]?
The Cmax was 445 ng/mL.

And the AUC(0-t) [1, 4]?
The AUC(0-t) was 4040 ng·h/mL.

And the Tmax [1, 4]?
The Tmax was 3.33 h.

And the Cmax [1, 4]?
Its Cmax is 419 ng/mL.

What about the AUC(0-inf) [1, 3] of the same molecule?
Its AUC(0-inf) is 3510 ng·h/mL.

And the half-life [1, 3]?
The half-life was 4.33 h.

And the MRT inf ([1]; propylene glycol/Vitamin E TPGS/water formulation, individual animals, read-out: MRTInf_obs)?
Its MRT inf is 6.39 h.

What about the “potency against IL-17A relative to CXCL10” value (IL-17A) of the same molecule?
Its value is “about 13,000 fold”.

What about the “Biomarker selectivity (IL-17 vs. CXCL10)” value (IL-17A; Average preliminary biomarker assay) of the same molecule?
Its value is 3492 Fold.

What about the “Percent Inhibition Relative to Control (IL-17A)” value (IL-17A; Compound Conc. 0.000137174 μM, Donors 1-7, two values per donor) of the same molecule?
The value was 30.76% and 39.93% and 12.53% and 17.16% and 22.57% and 38.63% and 4.46% and 42.02% and 55.02* Percent and 40.50% and 25.91% and 19.06% and 25.23% and 32.91%.

And the “Percent Inhibition Relative to Control (IL-17A)” value (IL-17A; Compound Conc. 0.000411523 μM, Donors 1-7, two values per donor)?
Its value is 42.92% and 60.88% and 49.48% and 23.24% and 46.54% and 52.23% and 60.62% and 51.01% and 51.11% and 62.34% and 51.68% and 47.46% and 28.29% and 56.37%.

And the “Percent Inhibition Relative to Control (IL-17A)” value (IL-17A; Compound Conc. 0.001234568 μM, Donors 1-7, two values per donor)?
The value was 56.92% and 75.17% and 53.28% and 57.9% and 62.54% and 63.56% and 62.80% and 67.54% and 70.18% and 58.60% and 66.13% and 59.19% and 60.91% and 75.98%.

What about the “Percent Inhibition Relative to Control (IL-17A)” value (IL-17A; Compound Conc. 0.011111111 μM, Donors 1-7, two values per donor) of the same molecule?
Its value is 75.17% and 74.77% and 72.8%.

What about the “Percent Inhibition Relative to Control (IL-17A)” value (IL-17A; Compound Conc. 0.033333333 μM, Donors 1-7, two values per donor) of the same molecule?
The value was 76.69% and 83.98% and 75.68% and 76.46% and 73.03% and 78.96% and 78.00% and 81.52% and 83.08% and 69.43% and 73.08% and 77.7% and 78.81% and 89.99%.

What about the “Percent Inhibition Relative to Control (IL-17A)” value (IL-17A; Compound Conc. 0.1 μM, Donors 1-7, two values per donor) of the same molecule?
Its value is 80.29% and 80.05% and 78.2% and 79.86% and 80.34% and 80.42% and 83.72% and 86.56% and 80.96% and 85.39% and 77.87% and 84.04% and 85%.

What about the “Percent Inhibition Relative to Control (IL-17A)” value (IL-17A; Compound Conc. 1.52416E−05 μM, Donors 1-7, two values per donor) of the same molecule?
Its value is −2.11% and 5.95% and 4.5% and 4.36% and −0.57% and 6.2% and −11.47% and 18.94% and 28.57% and 13.94% and 37.95% and −8.34% and 0.61% and 18.05%.

And the “Percent Inhibition Relative to Control (IL-17A)” value (IL-17A; Compound Conc. 4.57247E−05 μM, Donors 1-7, two values per donor)?
Its value is −1.00% and 28.73% and 7.45% and 18.97% and 13.64% and 16.93% and −0.28% and 32.68% and 27.06% and 28.89% and 20.58% and 2.83% and 7.11% and 42.94%.

What about the IC50 (IL-17A; Homo sapiens, PBMC, Average preliminary biomarker assay, read-out: IL-17A IC50 Mean) of the same molecule?
Its IC50 is 0.3 nM.

What about the inhibition at 0.1 µM (IL-17A; Homo sapiens, PBMC, Compound Conc. 0.1 μM, Donors 1-7, two values per donor, read-out: Percent Inhibition Relative to Control (IL-17A)) of the same molecule?
Its inhibition at 0.1 µM is 80.8%.

What about the IC50 (IL-17A; Homo sapiens, PBMC, Preliminary biomarker assay, Test Subject 1, read-out: IL-17A IC50) of the same molecule?
Its IC50 is 0.2 nM.

What about the IC50 (IL-17A; Homo sapiens, PBMC, Preliminary biomarker assay, Test Subject 2, read-out: IL-17A IC50) of the same molecule?
The IC50 was 0.3 nM.

And the IC50 (IL-17A; Homo sapiens, PBMC, Preliminary biomarker assay, Test Subject 3, read-out: IL-17A IC50)?
The IC50 was 0.4 nM.

And the IC50 (IL-17A; Homo sapiens, PBMC, ELISA, read-out: Selectivity (IC50) IL-17A)?
Its IC50 is 0.271 nM.

What about the “IC50, inhibition of release of IL-17A” value (IL-17A; human PBMCs, 72 hours) of the same molecule?
Its value is “sub-nanomolar”.

What about the “effectiveness relative to GSK620 in reducing IL-17A, IL-22 and CXCL10” value (IL-17A; preliminary biomarker assays) of the same molecule?
The value was “more effective than GSK620”.
